Counter-ions that a name gives are not always drawn. Like-named read-outs stand apart in the source and are kept apart here.
Test system: Acinetobacter baumannii ATCC17961
Assay: Antimicrobial susceptibility testing: 90% growth inhibitory concentration (IC90) determination in Iso-Sensitest broth, OD600 growth
Assay type: cell-based
Conditions: Acinetobacter baumannii, ATCC17961, 16 h
Procedure, shortened: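 Compounds were twofold serially diluted in DMSO across 10 points (e.g. 50 to 0.097 μM final) and inoculated at ~5×10^(5) CFU/ml. Plates incubated at 35±2° C, with OD600 read every 20 minutes over 16 h. IC90 was derived from growth inhibition during logarithmic growth.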

[1] = read-out: A. baumannii ATCC 17961 IC90 (uM), strain ATCC 17961, OD600 growth over 16 h
[2] = strain ATCC 17961, OD600 growth over 16 h, read-out: A. baumannii ATCC 17961 IC90

Row | IC90 [2] [µM] | SMILES | IC90 [1] [µM]
1 |  | Cc1cc(Nc2nccn3c(-c4cn(C)nc4C(F)(F)F)cnc23)ccc1C(=O)N1CCN(C(=O)C2(O)CCNCC2)CC1 [Example 471, formic acid; [4-(4-hydroxypiperidine-4-carbonyl)piperazin-1-yl]-[2-methyl-4-[[3-[1-methyl-3-(trifluoromethyl)pyrazol-4-yl]imidazo[1,2-a]pyrazin-8-yl]amino]phenyl]methanone] | 1.1
2 |  | O=C(c1ccc(Nc2nccn3c(-c4c[nH]nc4C(F)(F)F)cnc23)cc1Cl)N1CCN(C(=O)[C@H]2C[C@H](O)CN2)CC1 [Example 452, [2-chloro-4-[[3-[3-(trifluoromethyl)-1H-pyrazol-4-yl]imidazo[1,2-a]pyrazin-8-yl]amino]phenyl]-[4-[(2R,4S)-4-hydroxypyrrolidine-2-carbonyl]piperazin-1-yl]methanone formate] | 0.401
3 | 0.345 | CCc1cc(Nc2nccn3c(-c4cn(CC(F)F)nc4C(F)(F)F)cnc23)ccc1C(=O)NCC(=O)N1CC[C@@H](N)C1 [Example 687, N-[2-[(3R)-3-aminopyrrolidin-1-yl]-2-oxo-ethyl]-4-[[3-[1-(2,2-difluoroethyl)-3-(trifluoromethyl)pyrazol-4-yl]imidazo[1,2-a]pyrazin-8-yl]amino]-2-ethyl-benzamideformate] | 
4 | 0.476 | CCc1cc(Nc2nccn3c(-c4c[nH]nc4C(F)(F)F)cnc23)ccc1C(=O)NCCNC(=O)[C@H]1C[C@H](N)C1 [Example 567, N-(2-((1r,3r)-3-aminocyclobutane-1-carboxamido)ethyl)-2-ethyl-4-((3-(3-(trifluoromethyl)-1H-pyrazol-4-yl)imidazo[1,2-a]pyrazin-8-yl)amino) benzamide formate] | 
5 |  | CCc1cc(Nc2nccn3c(-c4cn(CC#N)nc4C(F)(F)F)cnc23)ccc1C(=O)N[C@H](C)C(=O)N1CC[C@@H](N)C1 [Example 732, N-[(1R)-2-[(3R)-3-aminopyrrolidin-1-yl]-1-methyl-2-oxo-ethyl]-4-[[3-[1-(cyanomethyl)-3-(trifluoromethyl)pyrazol-4-yl]imidazo[1,2-a]pyrazin-8-yl]amino]-2-ethyl-benzamide formate] | 0.48
6 |  | Cc1cc(Nc2nccn3c(-c4cn(CC#N)nc4C(F)(F)F)cnc23)ccc1C(=O)NCC(=O)NCCN(C)C [Example 752, 4-[[3-[1-(cyanomethyl)-3-(trifluoromethyl)pyrazol-4-yl]imidazo[1,2-a]pyrazin-8-yl]amino]-N-[2-[2-(dimethylamino)ethylamino]-2-oxo-ethyl]-2-methyl-benzamide formate] | 0.636
7 | 0.705 | N[C@H]1CCN(C(=O)c2ccc(Nc3nccn4c(-c5c[nH]nc5C(F)(F)F)cnc34)cc2Cl)C1 [Example 320, [(3S)-3-aminopyrrolidin-1-yl]-[2-chloro-4-[[3-[3-(trifluoromethyl)-1H-pyrazol-4-yl]imidazo[1,2-a]pyrazin-8-yl]amino]phenyl]methanone] | 
8 |  | CCc1cc(Nc2nccn3c(-c4cn(CC5CC(F)(F)C5)nc4C(F)(F)F)cnc23)ccc1C(=O)NCCOCCN [Example 304, N-[2-(2-aminoethoxy)ethyl]-4-[[3-[1-[(3,3-difluorocyclobutyl)methyl]-3-(trifluoromethyl)pyrazol-4-yl]imidazo[1,2-a]pyrazin-8-yl]amino]-2-ethylbenzamide formate] | 0.253
9 |  | O=C(c1ccc(Nc2nccn3c(-c4cn(Cc5cccnn5)nc4C(F)(F)F)cnc23)cc1Cl)N1CCNCC1 [Example 135, [2-chloro-4-[[3-[1-(pyridazin-3-ylmethyl)-3-(trifluoromethyl)pyrazol-4-yl]imidazo[1,2-a]pyrazin-8-yl]amino]phenyl]-piperazin-1-ylmethanone formate] | 0.933
10 | 0.384 | CN(C)C(=O)c1ccc(Nc2nccn3c(-c4c[nH]nc4C(F)(F)F)cnc23)cc1Cl [Example 402, 2-chloro-N,N-dimethyl-4-[[3-[3-(trifluoromethyl)-1H-pyrazol-4-yl]imidazo[1,2-a]pyrazin-8-yl]amino]benzamide] | 
11 | 0.356 | Cc1cc(Nc2nccn3c(-c4cn(CC(F)F)nc4C(F)(F)F)cnc23)cc(F)c1C(=O)N1CCN(C(=O)[C@H]2[C@@H]3CNC[C@@H]32)CC1 [Example 692, (4-((1R,5S,6r)-3-azabicyclo[3.1.0]hexane-6-carbonyl)piperazin-1-yl)(4-((3-(1-(2,2-difluoroethyl)-3-(trifluoromethyl)-1H-pyrazol-4-yl)imidazo[1,2-a]pyrazin-8-yl)amino)-2-fluoro-6-methylphenyl)methanone] | 
12 | 0.136 | CCc1cc(Nc2nccn3c(-c4cn(CC#N)nc4C(F)(F)F)cnc23)ccc1C(=O)NCC#N [Example 251, N-(cyanomethyl)-4-[[3-[1-(cyanomethyl)-3-(trifluoromethyl)pyrazol-4-yl]imidazo[1,2-a]pyrazin-8-yl]amino]-2-ethylbenzamide] | 
13 |  | CCc1cc(Nc2nccn3c(-c4c[nH]nc4C(F)(F)F)cnc23)ccc1C(=O)NCCCNC(=O)[C@@H](N)CCCCN [Example 195, N-[3-[[(2S)-2,6-diaminohexanoyl]amino]propyl]-2-ethyl-4-[[3-[3-(trifluoromethyl)-1H-pyrazol-4-yl]imidazo[1,2-a]pyrazin-8-yl]amino]benzamide formate] | 0.331
14 |  | CCc1cc(Nc2nccn3c(-c4cn(CC#N)nc4C(F)(F)F)cnc23)ccc1C(=O)NOCCN [Example 228, N-(2-aminoethoxy)-4-[[3-[1-(cyanomethyl)-3-(trifluoromethyl)pyrazol-4-yl]imidazo[1,2-a]pyrazin-8-yl]amino]-2-ethylbenzamide formate] | 0.409
15 | 0.459 | CCc1cc(Nc2nccn3c(-c4c[nH]nc4C(F)(F)F)cnc23)ccc1C(=O)NCCNC(=O)[C@H]1CC[C@@H](N)C1 [Example 724, N-(2-((1S,3R)-3-aminocyclopentane-1-carboxamido)ethyl)-2-ethyl-4-((3-(3-(trifluoromethyl)-1H-pyrazol-4-yl)imidazo[1,2-a]pyrazin-8-yl)amino)benzamide] | 
16 |  | CCc1cc(Nc2nccn3c(-c4cn(CCF)nc4C(F)(F)F)cnc23)ccc1C(=O)NCCOCCN [Example 301, N-[2-(2-aminoethoxy)ethyl]-2-ethyl-4-[[3-[1-(2-fluoroethyl)-3-(trifluoromethyl)pyrazol-4-yl]imidazo[1,2-a]pyrazin-8-yl]amino]benzamide formate] | 0.164
17 |  | C[C@@H](NC(=O)c1ccc(Nc2nccn3c(-c4c[nH]nc4C(F)(F)F)cnc23)cc1Cl)C(=O)N[C@@H]1CCNC1 [Example 93, 2-chloro-N-[(2R)-1-oxo-1-[[(3R)-pyrrolidin-3-yl]amino]propan-2-yl]-4-[[3-[3-(trifluoromethyl)-1H-pyrazol-4-yl]imidazo[1,2-a]pyrazin-8-yl]amino]benzamide formate] | 1.02
18 |  | CCc1cc(Nc2nccn3c(-c4cn(CC#N)nc4C(F)(F)F)cnc23)ccc1C(=O)NCCNC(=O)[C@@H](C)N [Example 625, (R)-N-(2-(2-aminopropanamido)ethyl)-4-((3-(1-(cyanomethyl)-3-(trifluoromethyl)-1H-pyrazol-4-yl)imidazo[1,2-a]pyrazin-8-yl)amino)-2-ethylbenzamide formate] | 0.176
19 |  | CCc1cc(Nc2nccn3c(-c4cn(CC(F)F)nc4C(F)(F)F)cnc23)ccc1C(=O)NCCNC(=O)CCCN [Example 537, N-(2-(4-aminobutanamido)ethyl)-4-((3-(1-(2,2-difluoroethyl)-3-(trifluoromethyl)-1H-pyrazol-4-yl)imidazo[1,2-a]pyrazin-8-yl)amino)-2-ethylbenzamide formate] | 0.163
20 |  | Cc1cc(Cn2cc(-c3cnc4c(Nc5ccc(C(=O)N6CCNCC6)c(Cl)c5)nccn34)c(C(F)(F)F)n2)n[nH]1 [Example 118, [2-chloro-4-[[3-[1-[(5-methyl-1H-pyrazol-3-yl)methyl]-3-(trifluoromethyl)pyrazol-4-yl]imidazo[1,2-a]pyrazin-8-yl]amino]phenyl]-piperazin-1-ylmethanone formate] | 0.343
21 |  | Cc1cc(Nc2nccn3c(-c4cn(C)nc4C(F)(F)F)cnc23)ccc1C(=O)N1CCN(C(=O)N[C@@H]2CNC[C@H]2O)CC1 [Example 469, formic acid; N-[(3R,4R)-4-hydroxypyrrolidin-3-yl]-4-[2-methyl-4-[[3-[1-methyl-3-(trifluoromethyl)pyrazol-4-yl]imidazo[1,2-a]pyrazin-8-yl]amino]benzoyl]piperazine-1-carboxamide] | 0.705
22 | 0.489 | CCc1cc(Nc2nccn3c(-c4cn(CC(F)F)nc4C(F)(F)F)cnc23)ccc1C(=O)N1CCN(C(=O)C2CCNCC2)CC1 [Example 70, [4-[[3-[1-(2,2-difluoroethyl)-3-(trifluoromethyl)pyrazol-4-yl]imidazo[1,2-a]pyrazin-8-yl]amino]-2-ethylphenyl]-[4-(piperidine-4-carbonyl)piperazin-1-yl]methanone] | 
23 | 0.357 | O=C(NC1CN(C(=O)c2ccc(Nc3nccn4c(-c5c[nH]nc5C(F)(F)F)cnc34)cc2Cl)C1)[C@@H]1C[C@@H](O)CN1 [Example 175, (2S,4R)-N-[1-[2-chloro-4-[[3-[3-(trifluoromethyl)-1H-pyrazol-4-yl]imidazo[1,2-a]pyrazin-8-yl]amino]benzoyl]azetidin-3-yl]-4-hydroxypyrrolidine-2-carboxamide] | 
24 |  | C=C(Cl)Cn1cc(-c2cnc3c(Nc4ccc(C(=O)NCCOCCN)c(CC)c4)nccn23)c(C(F)(F)F)n1 [Example 274, N-[2-(2-aminoethoxy)ethyl]-4-[[3-[1-(2-chloroprop-2-enyl)-3-(trifluoromethyl)pyrazol-4-yl]imidazo[1,2-a]pyrazin-8-yl]amino]-2-ethylbenzamide formate] | 0.101
25 | 0.687 | Cc1cc(Nc2nccn3c(-c4cn(CCF)nc4C(F)(F)F)cnc23)cc(F)c1C(=O)N1CCNCC1 [Example 73, [2-fluoro-4-[[3-[1-(2-fluoroethyl)-3-(trifluoromethyl)pyrazol-4-yl]imidazo[1,2-a]pyrazin-8-yl]amino]-6-methylphenyl]-piperazin-1-ylmethanone] | 
